From PMC6977318, “In vitro and in situ study on characterization and mechanism of the intestinal absorption of 2,3,5,4′-tetrahydroxy-stilbene-2-O-β-D-glucoside” (BMC Pharmacology & Toxicology, 2020)

How the values were obtained:
[1] = In situ gastric perfusion of TSG in rats; format: in vivo; details: rat
Method: According to the Chinese Pharmacopoeia, the artificial gastric juice without pepsin is configured under the time limit inspection method of disintegration.
The appropriate amount of TSG was accurately weighed, and the gastric perfusate was prepared at a concentration of 10, 30 and 60 μg·mL^− 1 using artificial gastric juice.
24 SD rats, half male and half female, were fasted for 12 h but permitted to drink water freely before surgery. Rats were anesthetized by intraperitoneal injection of 25% urethane ([…]) and placed in a supine position on the operating table. The abdominal cavity was opened along the midline of the abdomen, then the incision was made at the duodenum and the ileum. The polyethylene tubes were carefully inserted at both sides of the segment and ligatured with a sterile surgical line. […]
1 mL sample was mixed with equal amount of methanol, filtered through a membrane filter (0.45 μm pore size), and centrifuged at 12000 r·min^− 1 for 10 min. […] TSG was detected at wavelength of 320 nm and phenol red was detected at wavelength of 430 nm. […] With the sampling time t as independent variable and lnX as dependent variable, the absorption rate constant Ka was determined from the slope of the straight line. The drug absorption percentage were calculated by the ratio of the change value of the remaining dose of t (h) to the amount of the remaining drug at time 0.

MRP2 [2] = experiment: Western blotting, expression of MRP2 in Caco-2 cells after TSG; format: cell-based; details: TSG 10, 30 and 60 μg·mL^− 1, 4 h; significant at 30 and 60 μg·mL^− 1 (p < 0.05)
Method: (§1) When Caco-2 cells grew to 80–90%, the cell were treated with different concentrations (10, 30 and 60 μg·mL^− 1) of TSG and blank medium solution (blank control group). […] The concentration of total proteins was detected by BCA kit, and the supernatant were mix with SDS-PAGE sample buffer after protein quantification, denatured on a heater for 5 min and stored.
(§2) The total proteins were electrophoresed in 10% SDS-PAGE gel and then transferred to PVDF membranes by wet process to block with 5% skim milk for 2 h at room temperature. Membranes were incubated overnight with the following primary antibodies Anti-P glycoprotein antibody (1:2000), Anti-MRP2 antibody (1:500), and GAPDH polyclonal antibody. After that, the membranes were washed with 0.1% TBST for 3 times and 10 min each time and incubated with corresponding secondary antibody (1:5000) for 1 h at room temperature. The OD density values of bands were analyzed using gel imaging and analysis system.

[3] = design: method as in PMID 23371758; details: rats plasma, two-compartment model; cited from earlier work
Caco-2 cell monolayer = experiment: Bidirectional transport across Caco-2 cell monolayer (Papp); format: in vitro ADME
Method: Then, the supernatant was analyzed by HPLC. […] The injected sample volume was 5 μL. TSG was detected at wavelength of 320 nm.
(§3) (1): 1 Papp=dQ/dt×1/A×1/C0

Caco-2 cells = experiment: MTT cytotoxicity of TSG for Caco-2 cells; format: cell-based
Method: (§4) MTT assay was firstly used to investigate the effect of TSG with different concentrations on Caco-2 cells vitality. Briefly, Caco-2 cells were seeded in 96-wells plates at a density of 1 × 10^4 cells per well and placed in a 5% carbon dioxide incubator. After 48 h incubation, the cells were treated with increasing concentrations of TSG (0.75–240 μg·mL^− 1) and DMEM (containing 1%FBS) as a negative control. After 5 h of incubation, 20 μL of 5 mg·mL^− 1 MTT was added to each well, and the plate was incubated at 37 °C for 4 h. Then 150 μL of DMSO was added to each well after the supernatant was discarded. Absorbance was measured at a wavelength of 570 nm.

[4] = MTT cytotoxicity of TSG for Caco-2 cells; format: cell-based; details: human; Caco-2 cells, 60 μg·mL^− 1 TSG, 5 h, MTT; read-out: cell viability
Method: as §4

P-gp = experiment: Western blotting, expression of P-gp in Caco-2 cells after TSG; format: cell-based; details: TSG 10, 30 and 60 μg·mL^− 1, 4 h; significant at 60 μg·mL^− 1 (p < 0.05)
Method: as §1, §2

MRP2 [5] = target: T1, MRP2 (Rattus norvegicus, UniProt Q63120); experiment: Effect of MRP2 inhibitor on intestinal absorption of TSG, in situ perfusion; format: in vivo
T1 construct: from tissue; host or cells: rat small intestine, perfused in situ
Method: The perfusion was started with inhibitor solution at a flow rate of 2 mL·min^− 1, and after 30 min, it was replaced with TSG solution to investigate the influences of efflux proteins on TSG.
(§5) 1 mL sample was mixed with equal amount of methanol, filtered through a membrane filter (0.45 μm pore size), and centrifuged at 12000 r·min^− 1 for 10 min. […] The mobile phase consisted of (A) 0.1% formic acid water and (B) acetonitrile. The gradient elution was set as: linear gradient elution 20–35% B (0-15 min) with a flow rate of 1 mL·min^− 1. The injected sample volume was 5 μL. TSG was detected at wavelength of 320 nm and phenol red was detected at wavelength of 430 nm. The concentration of phenol red was used to correct the volume of intestinal circulating fluid. The concentration of TSG and the volume of intestinal circulating fluid in each time period was used to calculate the residual drug amount (X). With the sampling time t as independent variable and lnX as dependent variable, the absorption rate constant Ka was determined from the slope of the straight line. The drug absorption percentage were calculated by the ratio of the change value of the remaining dose of t (h) to the amount of the remaining drug at time 0.
(§6) The absorption rate constants (Ka) and percentage of absorption (PA, %) were calculated using the following eqs. (3), (4), respectively.
(§7) Where X was the residual drug amount, C0 was the drug concentration of intestinal circulation liquid at 0 min, V0 was the drug volume of intestinal circulation liquid at 0 min, Ct was the drug concentration of intestinal circulation liquid at t min, Vt was the drug volume of intestinal circulation liquid at t min, t was the perfusion time.

[6] = In situ single-pass intestinal perfusion of TSG in rats (Ka, PA); format: in vivo, rat
Method: The proper amount of TSG was accurately weighed, and the intestinal circulation liquid with a concentration of 10, 30 and 60 μg·mL^− 1 was prepared by using a blank intestinal circulation solution.
24 SD rats, half male and half female, were fasted for 12 h but permitted to drink water freely before surgery. Rats were anesthetized by intraperitoneal injection of 25% urethane ([…]) and placed in a supine position on the operating table. The abdominal cavity was opened along the midline of the abdomen, then the incision was made at the duodenum and the ileum. The polyethylene tubes were carefully inserted at both sides of the segment and ligatured with a sterile surgical line. The contents of the intestines were slowly rinsed with 0.9% saline, prewarmed at 37 °C, and the residual liquid in the intestine was drained with air. Afterward, the wound in the abdomen of the rats was covered with a gauze soaked with 37 °C 0.9% saline buffer to moisturize after the operation, warmed with infrared lamp. The intestinal was equilibrated with a drug-containing perfusate (the concentration of TSG was 10, 30 and 60 μg·mL^− 1 respectively) which was preheated at 37 °C at a flow rate of 5 mL·min^− 1. Samples were collected in EP tubes after 10 min, and blank intestinal circulation solution (1 mL) was quickly added to circulatory solution. After that, the flow rate was adjusted to 2 mL·min^− 1, and the samples were taken at 10 min intervals for 4 h. In addition, in order to study the effects of different pH on intestinal absorption of TSG, the pH of the blank intestinal circulation solution was adjusted to 5.4 and 6.4, respectively. Finally, the experimental animals were euthanized by the method of rapid decapitation when the experiment was over. The procedures and precautions for sacrifice were the same as previously described.
as §5, §6, §7

MRP2 [7] = experiment: Effect of MRP2 inhibitor on TSG transport across Caco-2 cell monolayer; format: in vitro ADME
Method: The effect of efflux protein inhibitors on the intestinal absorption of TSG was studied based on Caco-2 cell monolayer model. […] Before the administration, the inhibitor was added to AP side and BL side, and the plate was placed in an incubator. After 30 min, the inhibitor solution was replaced with TSG solution at concentration of 30 μg·mL^− 1 to inspect the effect of efflux proteins on TSG.
Then, the supernatant was analyzed by HPLC. HPLC separation was performed on Eclipse Plus C18 column (4.6 mm × 250 mm, 5 μm) at 30 °C. The mobile phase consisted of acetonitrile and 0.1% formic acid water (25:75) and the velocity of flow is 1 mL·min^− 1. The injected sample volume was 5 μL. TSG was detected at wavelength of 320 nm.
as §3

[8] = inhibitor 5 μg·mL^− 1, TSG 30 μg·mL^− 1, compared with TSG alone
[9] = inhibitor 25 μg·mL^− 1, TSG 30 μg·mL^− 1, compared with TSG alone
[10] = inhibitor 25 μg·mL^− 1, p < 0.05, rat

T1 sequence (Q63120 whole entry, the tested form may be a part): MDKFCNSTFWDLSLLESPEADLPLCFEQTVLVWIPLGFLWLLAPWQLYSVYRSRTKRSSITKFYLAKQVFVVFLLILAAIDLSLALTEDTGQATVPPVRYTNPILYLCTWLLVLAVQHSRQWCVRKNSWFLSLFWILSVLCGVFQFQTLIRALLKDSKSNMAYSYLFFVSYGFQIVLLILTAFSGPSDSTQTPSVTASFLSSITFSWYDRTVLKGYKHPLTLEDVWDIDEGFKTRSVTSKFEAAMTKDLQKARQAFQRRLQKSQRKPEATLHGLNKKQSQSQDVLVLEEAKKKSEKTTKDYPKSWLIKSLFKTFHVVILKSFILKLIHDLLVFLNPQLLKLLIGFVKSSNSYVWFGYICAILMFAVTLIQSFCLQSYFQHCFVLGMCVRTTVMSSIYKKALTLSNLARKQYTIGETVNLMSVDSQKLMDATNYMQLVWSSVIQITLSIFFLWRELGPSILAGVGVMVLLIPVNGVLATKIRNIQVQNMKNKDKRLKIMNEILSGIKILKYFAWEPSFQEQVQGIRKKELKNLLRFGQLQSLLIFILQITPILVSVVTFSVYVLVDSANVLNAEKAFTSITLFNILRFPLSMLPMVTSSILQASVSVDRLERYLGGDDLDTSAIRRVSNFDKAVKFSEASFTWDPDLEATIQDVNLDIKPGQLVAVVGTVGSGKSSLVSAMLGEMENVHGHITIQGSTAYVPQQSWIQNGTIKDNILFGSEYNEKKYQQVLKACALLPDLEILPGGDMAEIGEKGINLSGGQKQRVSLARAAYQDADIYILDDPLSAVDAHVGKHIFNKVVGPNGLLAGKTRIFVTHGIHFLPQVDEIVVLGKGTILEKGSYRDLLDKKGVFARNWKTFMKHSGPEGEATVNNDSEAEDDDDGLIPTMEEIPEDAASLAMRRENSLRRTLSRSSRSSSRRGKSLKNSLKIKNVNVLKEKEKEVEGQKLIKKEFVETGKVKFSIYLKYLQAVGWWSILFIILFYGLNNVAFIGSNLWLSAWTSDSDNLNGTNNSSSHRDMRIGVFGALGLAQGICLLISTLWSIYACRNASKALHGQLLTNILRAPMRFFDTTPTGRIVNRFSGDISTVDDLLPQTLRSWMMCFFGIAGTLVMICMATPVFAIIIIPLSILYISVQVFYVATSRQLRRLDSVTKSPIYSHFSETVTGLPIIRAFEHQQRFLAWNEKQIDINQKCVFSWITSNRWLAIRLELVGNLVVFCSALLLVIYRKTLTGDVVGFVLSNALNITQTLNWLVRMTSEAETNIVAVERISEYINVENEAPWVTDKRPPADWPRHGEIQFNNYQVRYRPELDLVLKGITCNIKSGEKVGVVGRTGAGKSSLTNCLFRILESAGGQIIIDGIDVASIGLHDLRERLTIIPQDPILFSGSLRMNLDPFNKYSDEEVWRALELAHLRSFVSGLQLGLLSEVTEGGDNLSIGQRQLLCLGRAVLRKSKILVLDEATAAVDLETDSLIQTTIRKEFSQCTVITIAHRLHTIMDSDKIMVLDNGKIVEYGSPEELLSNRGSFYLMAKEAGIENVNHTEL

OC[C@H]1O[C@@H](Oc2c(O)cc(O)cc2/C=C/c2ccc(O)cc2)[C@H](O)[C@@H](O)[C@@H]1O [TSG, 2,3,5,4′-tetrahydroxystilbene-2-O-β-D-glucoside]
absorption in stomach ([1]; TSG 10, 30 and 60 μg·mL^− 1): well absorbed | absorption in stomach versus concentration ([1]; TSG 10, 30 and 60 μg·mL^− 1, p < 0.05): increased significantly with concentration | expression of MRP2 in cells (MRP2 [2]): decreased | absorption half-life (t1/2Ka) [3]: 14.80 min | maximal concentration (Cmax) [3]: 5.70 μg·mL^− 1 | bilateral (AP-BL and BL-AP) Papp versus concentration (Caco-2 cell monolayer; 10, 30 and 60 μg·mL^− 1): decreased substantially with increasing concentration | absorption class from Papp (Caco-2 cell monolayer; Caco-2 cell monolayer): moderately absorbed drug | Papp values of bidirectional transport versus pH (Caco-2 cell monolayer; TSG 30 μg·mL^− 1, pH 7.4, 6.4, 5.4): increased significantly with the decrease of pH value | time at which bilateral Papp values reached the maximum (Caco-2 cell monolayer; after administration, 10, 30 and 60 μg·mL^− 1): 1 h | cell viability (Caco-2 cells; Caco-2 cells, TSG more than 60 μg·mL^− 1, MTT): significantly decreased | toxicity on Caco-2 cells (Caco-2 cells; TSG 0.75–60 μg·mL^− 1, MTT): basically no toxicity | viability at 5 h, 60 μg·mL^-1 [4]: > 90% | expression of P-gp in Caco-2 cells (P-gp): increased with concentration | substrate of efflux protein MRP2 (MRP2 [5]; conclusion from in situ transport data): may be the substrate | absorption rate in the intestine ([6]; in situ perfusion, rat): lower than 20% | Ka between pH 6.4 and 7.4 ([6]; rat intestinal perfusion, p < 0.01): significant increase | PA value of pH 7.4 versus pH 6.4 and 5.4 ([6]; rat intestinal perfusion, p < 0.05): significantly different | absorption rate constant (Ka) at 10 μg·mL^− 1 versus 30 and 60 μg·mL^− 1 ([6]; rat small intestine, p < 0.05): significantly greater | percentage of absorption (PA) at 10 μg·mL^− 1 versus 30 and 60 μg·mL^− 1 ([6]; rat small intestine, p < 0.05): significantly greater

CCCN(CCC)S(=O)(=O)c1ccc(C(=O)O)cc1 [probenecid]
increase of Papp values of TSG, AP-BL side (MRP2 [7]; [8]): ~2.22 times | increase of Papp values of TSG, BL-AP side (MRP2 [7]; [8]): ~1.82 times | increase of Papp values of TSG, AP-BL side (MRP2 [7]; [9]): ~3.02 times | increase of Papp values of TSG, BL-AP side (MRP2 [7]; [9]): ~1.91 times | Ka values of TSG in presence of inhibitor (MRP2 [5]; [10]): significantly enhanced | PA values of TSG in presence of inhibitor (MRP2 [5]; [10]): significantly enhanced
